In general, EC50 refers to the concentration that produces a half-maximal response.

These results are taken from patent publication US10010584B2, “Treatment of depressive disorders” (Blanchette Rockefeller Neuroscience Institute, priority 2004, dated 2018).

One data set deals with Adult Wistar rats. As to the kind of experiment: Open-space-swimming test. The class given is in vivo, rat. The settings on record: for mobility (distance moved) / immobility compared with control group: 10 mg/kg×3 per day, 23, 2 and 1 h before trial sessions, saline control; for percentages of decreases in the distance moved on the third day (using the decrease of control groups as 100%): 10 mg/kg×3 per day i.p., n=8. The protocol:
Adult Wistar rats (180-200 g) were housed in a temperature-controlled (20-24° C.) room for at least a week prior to experimentation, allowed free access to food and water, and kept on a 12-h light/dark cycle. They were randomly assigned to different groups (eight each) and were moved to the test room in their home cages at least 1 h before trials. Rats were individually placed into a round pool with a diameter of 152 cm and height of 60 cm and was filled with 40 cm H2O (22±1° C.). The room and pool are part of the started set-up used for spatial water maze task. (Sun et al. (2002) J. Pharmacol. Exp. Ther. 300: 408-416). The tests for different drug treatment and control groups were in a counterbalanced order. No escape was available in these trials. Rats were free to swim (or not to swim) for 15 min and then removed and returned to their home cage after drying. Observers were obscured from sight of the rats during the trials, but were able to observe the animals' behaviors on a video screen monitor during trials. The same procedure (15 min session per day) was repeated 24 h later and continued for 3 additional days. Drugs were dissolved in a saline solution for test groups and saline alone was used in the control groups. Imipramine (10 mg/kg×3 day, i.p.), iproniazid (10 mg/kg×3 per day, i.p.), mianserin (10 mg/kg×3 per day, i.p.), alaproclate (10 mg/kg×3 per day), or saline were administered between the swimming trial sessions at 23, 2, and 1 h before the second, third, and fourth trial sessions, respectively. The rationale for the three doses before test trials is the more consistent predictive effects than those of a single dose (Porsolt et al. (1977) Nature 266: 730-730-732; Porsolt et al. (1978) Eur J. Pharmacol. 47: 379-391; Poncelet et al, (1986) Psychopharmacology 90: 139-141). The swimming/drifting path was recorded with a video-tracking system that was also used for the spatial water maze task in other studies (Sun et al., 2002; Sun and Alkon, 2002a). The system tracks the animal's position by recording sequential x/y-coordinates of trigger events (video signal above track level) and calculating the distance, in the pool (sample period: 0.055 s) and adds the distance at pre-set intervals (15 min) during each trial. The tracking system, however, neither distinguishes nor determines the duration of any period of mobility or immobility. To evaluate whether the distance moved, as recorded by the tracking system, reflects the duration of active swimming, the investigator(s) also recorded the duration of active swimming on-line via the video screen monitor for a direct comparison of the two parameters.
Depressive behavior in rats was induced by placing the animals in an open-space swimming apparatus, as described herein, for 15 minutes per trial per day. The animals were subjected to three trials over the course of three days. The animals were divided into three groups: control rats (8); phenylalanine rats (10); and imipramine rats (10). The control rats received a single i.v. dose of saline in the tail vein, 3.5 hours before the second trial. […] Rats in the imipramine group received 3 i.p. doses (10 mg/kg) at 23, 2 and 1 hour before the first, second and third trials, respectively.
Depressive behavior in rats was induced by placing the animals in an open-space swimming apparatus, as described herein, for 15 minutes per trial per day. The animals were subjected to three trials over the course of three days. […] The control rats received a single i.v. dose of saline in the tail vein, 3.5 hours before the second trial.

In data set [1] the test system is PKC. The settings on record: cited from earlier work.
For a further data set, the system named is humans. The following applies: cited from earlier work.
The target of a further data set is T1, PKCε (Homo sapiens, UniProt Q02156).
T1 sequence (Q02156 1-737): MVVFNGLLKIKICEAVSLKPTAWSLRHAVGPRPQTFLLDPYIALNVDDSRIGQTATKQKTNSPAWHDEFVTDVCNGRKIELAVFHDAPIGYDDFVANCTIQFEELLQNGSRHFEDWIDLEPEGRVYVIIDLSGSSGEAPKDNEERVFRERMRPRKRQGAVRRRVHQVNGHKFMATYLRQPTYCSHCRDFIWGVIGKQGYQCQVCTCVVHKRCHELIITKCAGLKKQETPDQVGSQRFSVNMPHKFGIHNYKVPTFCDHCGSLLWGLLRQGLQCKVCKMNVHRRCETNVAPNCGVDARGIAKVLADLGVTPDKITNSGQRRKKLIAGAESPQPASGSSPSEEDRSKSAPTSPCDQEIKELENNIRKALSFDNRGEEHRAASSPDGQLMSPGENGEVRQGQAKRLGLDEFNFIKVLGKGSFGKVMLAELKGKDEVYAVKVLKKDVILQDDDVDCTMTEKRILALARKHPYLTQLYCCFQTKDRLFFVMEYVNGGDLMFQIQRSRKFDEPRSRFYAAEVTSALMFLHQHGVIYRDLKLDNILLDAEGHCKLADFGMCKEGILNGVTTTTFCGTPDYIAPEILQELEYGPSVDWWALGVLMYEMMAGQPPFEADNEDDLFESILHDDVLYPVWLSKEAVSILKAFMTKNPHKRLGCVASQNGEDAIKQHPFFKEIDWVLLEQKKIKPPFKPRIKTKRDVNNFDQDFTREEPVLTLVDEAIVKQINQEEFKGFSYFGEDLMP
The following applies: cited from earlier work.

Data set [2] concerns murine leukemias and solid tumors. The following applies: cited from earlier work.
For data set [3], the system named is PKC. The following applies: K562 cells; cited from earlier work.
Data set [4] deals with cyclin dependent kinase 2 (Cdk2). The settings on record: at 5 ng/ml; cited from earlier work.
For data set [5], the target named is PKC. The following applies: competes with [3H]phorbol dibutyrate; read-out: Ki for binding; cited from earlier work.
Data set [6] relates to squamous cell carcinoma and melanoma. The following applies: used topically; cited from earlier work.
A further data set deals with NCI 60 cell line screen. The settings on record: cited from earlier work.
For another data set, the target named is PKCa (Homo sapiens, UniProt P17252). The following applies: cited from earlier work.
The test system of data set [7] is PKC. The following applies: cited from earlier work. The source holds these as a separate data set.
The test system of the next data set is rats. The following applies: forced swimming test, 15 mg/kg×3 per day i.p., n=5; cited from earlier work.
In the next data set the target is protein kinase C. The following applies: (−)-enantiomer; cited from earlier work.
For data set [8] the following is noted: (−)-enantiomer; cited from earlier work.
Where [9] appears, read: Examples 7-13, present tense, no dose, no data.

Where two headings read alike, the source gives them in different places.

Take `CC(N)C(=O)OC(C)(C)Cc1ccc(Cl)cc1` (stereo not drawn) [Alaproclate, alaproclate]: the “duration of active swimming compared with control group” value in the data set on Adult Wistar rats (rats, 10 mg/kg×3 per day) is recorded as “significantly longer”. The “mobility (distance moved) / immobility compared with control group” value in the data set on Adult Wistar rats (rats) is listed as “effective in reducing the immobility”.

`CCCCCCCC(=O)O[C@H]1/C(=C/C(=O)OC)C[C@H]2C[C@H](CO)OC(=O)C[C@H](O)C[C@@H]3CCC[C@H](C[C@@H]4CCO[C@H](/C=C/C(C)(C)[C@]1(O)O2)O4)O3` [Analog 1]: in the data set with PKC [1], the “affinity for PKC (in words)” value was “highest affinity for PKC” and the “potency relative to bryostatin-1” value was “about 100 times”. Further, the Ki on PKC [1] (read-out: PKC Affin) was 0.00025 µM.

As to `CCC/C=C/C=C/C(=O)O[C@H]1/C(=C/C(=O)OC)C[C@H]2C[C@H]([C@@H](C)O)OC(=O)C[C@H](O)C[C@@H]3C[C@H](OC(C)=O)C(C)(C)[C@](O)(C[C@@H]4C/C(=C/C(=O)OC)C[C@H](/C=C/C(C)(C)[C@]1(O)O2)O4)O3` [Bryostatin 1, bryostatin-1], the “difference from imipramine group (10 mg/kg i.p. ×3)” value in the data set with Adult Wistar rats (rats, single i.v. dose 80 μg/kg) is “No significant difference”. Moreover, the “immobility compared with control group and imipramine group” value with Adult Wistar rats (rats, single i.v. dose 80 μg/kg in the tail vein 3.5 hours before the second trial) is listed as “effective in reducing immobility”. Besides, in the data set on humans, the main adverse reaction entry is listed as “myalgia”.

With `CCCCCC1CC1CC1CC1CCCCCCCC(=O)O` (stereo not drawn) [DCP-LA, 2-[(2-pentylcyclopropyl)methyl]cyclopropaneoctanoic acid], at PKCε (activation of PKCε), the “concentration of maximal effect” value was 100 nM. For the same molecule, the “isoform selectivity of PKC activation” value at PKCε was “selectively activates PKCε”.

As to `N[C@@H](Cc1ccccc1)C(=O)O` [Effector 2, phenylalanine], the “immobility compared with control group and imipramine group” value with Adult Wistar rats (rats, single i.v. dose in the tail vein 3.5 hours before the second trial) was “effective in reducing the immobility”.

As to `N[C@@H](Cc1ccc(O)cc1)C(=O)O` [Effector 4, 4-hydroxy phenylalanine], the “immobility compared with control group and imipramine group” value in the data set on Adult Wistar rats (setting [9]) is on record as “effective in reducing immobility”.

For `N[C@@H](Cc1ccc(F)cc1)C(=O)O` [Effector 5, 4-fluoro phenylalanine], the “immobility compared with control group and imipramine group” value in the data set with Adult Wistar rats (setting [9]) is recorded as “effective in reducing immobility”.

For the molecule `c1c[nH]cn1` [Effector 14, Imidazole], in the data set on Adult Wistar rats (setting [9]), the “immobility compared with control group and imipramine group” value was “effective in reducing immobility”.

Consider `C=C(C)[C@]12C[C@@H](COC(=O)c3ccccc3)[C@@]34OC5(O[C@@H]1[C@@H]3C1O[C@]1(CO)[C@@H](O)[C@@]1(O)[C@H]4[C@@H](C(C)CCCCCC[C@@H]5O)C(C)[C@@H]1OC(=O)c1ccccc1)O2` (stereo partly drawn) [Gnidimacrin], for which the “concentrations of potent antitumor activity” value in [2] was 0.1 to 1 nM. In addition, the “concentration at which it acts as a PKC activator” value with PKC [3] is given as “≈ 3 nM”. The “inhibition of Cdk2” value in data set [4] is given as 100%.

In the case of `CC1=C[C@]23C(=O)[C@@H](C=C(COC(=O)c4ccccc4)[C@@H](O)[C@]2(O)[C@H]1OC(=O)c1ccccc1)[C@H]1[C@@H](C[C@H]3C)C1(C)C` [Ingenol 3,20-dibenzoate], the Ki on PKC [5] was 0.24 µM.

`C/C=C(/C)C(=O)O[C@H]1C(C)=C[C@]23C(=O)[C@@H](C=C(CO)[C@@H](O)[C@]12O)[C@H]1[C@@H](C[C@H]3C)C1(C)C` [Ingenol-3-angelate]: the antitumor activity result in data set [6] is “possesses antitumor activity”.

As for `CC1=CC[C@H](C)C(C)(C)[C@@H]1/C=C/C(C)=C/CC[C@@]1(CO)[C@H](CCCO)/C(=C(/C)C=O)CC[C@]1(C)O` [Iripallidal], in the data set with NCI 60 cell line screen, the “GI50 (concentration required to inhibit growth by 50%)” value is listed as “from micromolar to nanomolar range”. For the same molecule, the Ki at PKCa is 0.0756 µM.

`CCCCCCCNS(=O)(=O)c1cccc2c(Cl)cccc12` [SC-10, N-(n-heptyl)-5-chloro-1-naphthalenesulfonamide]: in the data set with PKC [7], the “activation of PKC” value was “activates PKC in a calcium-dependent manner”.

Take `CCCCCCCC(=O)OC1C(=CC(=O)OC)CC2CC(CO)OC(=O)CC(O)CCOC(C(C)(C)C)CC3CCOC(C=CC(C)(C)C1(O)O2)O3` (stereo not drawn) [bryolog 3]: the Ki at PKC [1] (A-ring bryologs, read-out: affinity for PKC) is 0.0065 µM.

`CN(C)CCCN1c2ccccc2CCc2ccccc21` [imipramine]: the “percentages of decreases in the distance moved on the third day (using the decrease of control groups as 100%)” value with Adult Wistar rats (rats) was 49.8±7.6%. The “immobility % as control” value in the data set on rats is recorded as 61.5±6.5%.

Regarding `CC(C)NNC(=O)c1ccncc1` [iproniazid], in the data set with Adult Wistar rats (rats), the “percentages of decreases in the distance moved on the third day (using the decrease of control groups as 100%)” value was 44.0±7.7%; the “mobility (distance moved) / immobility compared with control group” value is “appeared more effective at the dose given than mianserin and imipramine”. Besides, the “immobility % as control” value in the data set on rats is reported as 87.6±7.3%.

In the case of `CN1CCN2c3ccccc3Cc3ccccc3C2C1` (stereo not drawn) [mianserin], in the data set on Adult Wistar rats (rats), the “percentages of decreases in the distance moved on the third day (using the decrease of control groups as 100%)” value is reported as 33.3±6.3%. In addition, in the data set with rats, the “immobility % as control” value is on record as 66.5±7.0%.

Take `CCCCCCCCc1ccc2c3c(c[nH]c13)C[C@@H](CO)NC(=O)[C@H](C(C)C)N2C` [octylindolactam V, Octylindolactam V]: the EC50 at protein kinase C was 0.029 µM. Besides, in [8], the metabolic stability entry is listed as “greater metabolic stability”.

B1: FGF-18: peptide consisting of 207 amino acids, member of the fibroblast growth factor family (protein, UniProt O76093 28-207, looked up)
Fibroblast growth factor 18: EENVDFRIHVENQTRARDDVSRKQLRLYQLYSRTSGKHIQVLGRRISARGEDGDKYAQLLVETDTFGSQVRIKGKETEFYLCMNRKGKLVGKPDGTSKECVFIEKVLENNYTALMSAKYSGWYVGFTKKGRPRKGPKTRENQQDVHFMKRYPKGQPELQKPFKYTTVTKRSRRIRPTHPA
Take B1: the “immobility compared with control group and imipramine group” value with Adult Wistar rats (setting [9]) was “effective in reducing immobility”.
